For one data set, the system named is Spodoptera frugiperda. The data set is described as follows: Insecticidal activity test against Spodoptera frugiperda (leaf dip, maize seedlings). The class given is in vivo. Particulars: Spodoptera frugiperda, foliar. The protocol: (§1) Various kinds of pests were tested with the compounds of this invention. Unless otherwise specified, the preparation method of samples and definition of the mortality rate of the insects in the embodiments and this invention are as follows: the preparation method of samples is to weigh 10 mg of the compound and dissolve it in 1 mL DMF to prepare 10,000 ppm mother liquid, which is diluted to necessary concentration by 0.05% Tween-80 water, respectively. The mortality rate is the mortality rate of pests under the test concentration, whose calculating formula is: mortality rate (%)=Number of dead pests/total pests*100
(§2) The leaf dip method was used to assay the insecticidal activity. Cut above ground part of fresh maize seedlings (about 10 cm). Dip the maize seedlings into the solution prepared with compound of this invention for 10 seconds and dry them in a cool environment. Then cut the dry maize seedlings into 3-5 cm leaf sections and put 3 leaf sections into each petri dish. Put ten of 3th-instar larvae of Spodoptera frugiperda into each dish, which was repeated by 3 times. Then the dishes were placed in an illumination incubator and incubated with 14 hL: 10 hD illumination at 25° C. Symptoms were investigated on the 1st, 2nd and 3rd day after treatment, and the mortality was calculated.

The test system of another data set is Spodoptera litura. The data set is described as follows: Insecticidal activity test against Spodoptera litura (leaf dip, cabbage leaf discs). Particulars: foliar. The class given is in vivo. How it is done:
as §1
The leaf dip method was used to assay the insecticidal activity. Healthy and pesticide-untreated cabbage leaves was selected to prepare 1 cm of leaf discs by diameter. Dip the leaf discs into the solution prepared with compound of this invention for 10 seconds and dry them in a cool […] environment. Then place them in 24-well plate with 3 discs per pore. Put 10 of Spodoptera litura into each pore, which was repeated by 3 times. The 24-well plate was placed in an illumination incubator and incubated with 14 hL: 10 hD illumination at 25° C. The dead number of Spodoptera litura was investigated on the 3rd day after treatment, and the mortality was calculated.

The next data set has as its system Mythimna separata. As to the kind of experiment: Insecticidal activity test against Mythimna separata (leaf dip, maize seedlings). The class given is in vivo. The following applies: foliar, 0.04 ppm, 3rd day after treatment, read-out: insecticidal activity (mortality of Mythimna separate). The protocol:
as §1
as §2, with “Mythimna separatas” for “Spodoptera frugiperda”

The test system of the next data set is Aphis craccivora. The data set is described as follows: Insecticidal activity test against Aphis craccivora (broad bean leaf dip). The class given is in vivo. Particulars: Aphis craccivora, foliar; 40 ppm, 3rd day after treatment; read-out: insecticidal activity (mortality of Aphis craccivora). How it is done:
as §1
Cut a single leaf of broad bean with stem and insert it into a glass jar filled with water (capacity of 20 ml). Five adult Aphis craccivoras were seeded onto each leaf, and covered with plastic cups with holes. The adult aphids were removed after 24 hours. Before the experiment, the base number was investigated and the single leaf with more than 15 nymphs aphids was selected for the experiment. Dip leaf of broad bean with nymphs aphids into the solution of test compound 10s, take out and dry them in a cool environment, 3 parallel repeats. Place the glass jars on the shelf of observation room and covered with plastic cups with holes. 20-25° C. with 14 hL: 10 hD illumination. The number of Aphis craccivora death and alive was investigated on the 3rd day after treatment, and the mortality was calculated.

A further data set concerns Chilo suppressalis. As to the kind of experiment: Insecticidal activity test against Chilo suppressalis (rice stem dip). Particulars: 1 ppm, 3rd day after treatment, read-out: insecticidal activity (mortality of Chilo suppressalis). The class given is in vivo. The protocol:
as §1
The rice was cultivated in a plastic pot with a diameter of 9 cm and a height of 10 cm. When the rice grew to 25 cm, the aerial part of robust and consistent rice seedlings was selectively cut. Their leaves were removed and their stems of about 8 cm were kept for use. Pour the solution prepared with compound of this invention into the Petri dish (about 40 mL) and dip the rice stems into the solution for 10 seconds. Take rice stems out and dry them in a cool environment. Put a wet cotton ball at the bottom of finger-like glass tube and 5 rice stems in each tube. Put 10 of 3rd-instar larvae of Chilo suppressa into each tube, which was repeated by 3 times. Seal the tubes with black cotton cloth and tighten them with rubber band. The tubes were placed in a illumination incubator at 28° C. and incubated in the dark (incubated without light). The dead number of Chilo suppressalis was investigated 3 days after treatment. The mortality was calculated.

Results on 2 molecules are retold here after US20220081389A1, “AMIDE COMPOUNDS AND PREPARATION METHOD THEREFOR AND USE THEREOF” (CAC NANTONG CHEMICAL CO., LTD., priority 2019, published 2022).

For orientation: melting point means the temperature, or range, at which the solid turns liquid. As usually defined, the mortality is the percentage killed.

SMILES strings stand for the structures. Like-named read-outs stand apart in the source and are kept apart here.

`N#Cc1ccc(C(=O)N(CC2CC2)c2cccc(C(=O)Nc3c(Br)cc(C(C(F)(F)F)C(F)(F)F)cc3OC(F)F)c2F)cc1` [Compound 26, N-(2-bromo-6-(difluoromethoxy)-4-(1,1,1,3,3,3-hexafluoropropan-2-yl)phenyl)-3-(4-cyano-N-(cyclopropylmethyl)benzamido)-2-fluorobenzamide] had a melting point of 133.1 to 135.5 °C.

In the case of `O=C(Nc1c(Br)cc(C(F)(C(F)(F)F)C(F)(F)F)cc1OC(F)F)c1cccc(N(CC2CC2)C(=O)c2ccc(F)nc2)c1F` [Compound 118, N-(3-((2-bromo-6-(difluoromethoxy)-4-(perfluoropropan-2-yl)phenyl)carbamoyl)-2-fluorophenyl)-N-(cyclopropylmethyl)-6-fluoronicotinamide], the mortality at 0.1 ppm in the data set with Spodoptera frugiperda (24 h, read-out: Mortality (%) against Spodoptera frugiperda, 1 d) was determined as 29.2%; in the data set on Spodoptera frugiperda (48 h, read-out: Mortality (%) against Spodoptera frugiperda, 2 d), 66.7%; in the data set with Spodoptera frugiperda (72 h, read-out: Mortality (%) against Spodoptera frugiperda, 3 d), 91.7%; in the data set on Spodoptera litura (72 h, 0.1 ppm, 3 d) it was 95.8%. Further, the mortality at 1 ppm in the data set on Spodoptera frugiperda (read-out: insecticidal activity (mortality of Spodoptera frugiperda)) and in the data set on Chilo suppressalis was at least 90% in each case. This molecule showed a mortality at 0.4 ppm in the data set with Spodoptera litura (0.4 ppm, 3rd day after treatment) of at least 90%. The mortality at 0.04 ppm with Spodoptera litura (72 h, 0.04 ppm, 3 d) is 66.7%; in the data set with Mythimna separata, at least 90%. In addition, the mortality at 40 ppm in the data set with Aphis craccivora is at least 90%.
